According to PubChem BioAssay (NCI):
“And” between values parts separate entries of the source, which are not always exact repeats. Identical values can stand only once.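 Five compound concentrations were applied to cells in 96-well plates for 48 hours; endpoints were derived by simple linear interpolation of the resulting dose-response curve. The concentration for 50% growth inhibition is given as GI50. Definition used: TGI = concentration required for complete inhibition of growth.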

Assays:
Test in all cases: NCI anticancer screen, dose series, 48 h
MCF7 breast = system: MCF7 breast
CCRF-CEM leukemia = system: CCRF-CEM leukemia
SK-MEL-28 melanoma = system: SK-MEL-28 melanoma
SF-539 CNS = system: SF-539 CNS
SF-295 CNS = system: SF-295 CNS
HT29 colon = system: HT29 colon
786-0 renal = system: 786-0 renal
RPMI-8226 leukemia = system: RPMI-8226 leukemia
OVCAR-4 ovarian = system: OVCAR-4 ovarian
HOP-62 NSCLC = system: HOP-62 NSCLC

Structure (SMILES)	GI50 (MCF7 breast) [µM]	TGI (MCF7 breast)	GI50 (CCRF-CEM leukemia) [µM]	TGI (CCRF-CEM leukemia) [µM]	GI50 (SK-MEL-28 melanoma)	TGI (SK-MEL-28 melanoma) [µM]	GI50 (SF-539 CNS)	TGI (SF-539 CNS)	GI50 (SF-295 CNS)	TGI (SF-295 CNS)	GI50 (HT29 colon) [µM]	TGI (HT29 colon) [µM]	GI50 (786-0 renal)	TGI (786-0 renal)	GI50 (RPMI-8226 leukemia) [µM]	TGI (RPMI-8226 leukemia)	GI50 (OVCAR-4 ovarian) [µM]	TGI (OVCAR-4 ovarian) [µM]	GI50 (HOP-62 NSCLC)	TGI (HOP-62 NSCLC)
Nc1ncn([C@H]2C[C@H](OP(=O)(O)OC[C@H]3O[C@@H](n4cnc5c(=O)[nH]c(N)nc54)C[C@@H]3O)[C@@H](CO)O2)c(=O)n1	51.9	> 100 µM	9.01	> 100	> 100 µM	> 100	> 100 µM	> 100 µM	> 100 µM	> 100 µM	47.1	> 100	71.8 µM	> 100 µM	> 100	> 100 µM	> 100	> 100	9.27 µM	> 100 µM
COc1cc(CCNC(=O)OC(C)(C)C)c2c(c1OC)SSSSS2	1.77	5.06 µM	5.34	65.2	1.9 µM	3.68	3.42 µM	10.4 µM	2.76 µM	6.43 µM	1.86	4.02	2.08 µM	5.56 µM	2.11	10.7 µM	2.05	4.82	3.71 µM	15.3 µM
O=c1oc2ccc(Br)cc2c(=O)n1-c1ccc(Cl)cc1F	1.66	10.1 µM	2.38	11.7	0.522 µM	3.03	0.854 µM	6.4 µM	1.78 µM	3.54 µM	3.35	> 34	2.38 µM	7.11 µM	0.446	2.97 µM	0.887	28.1	2.17 µM	9.13 µM
CC(=O)OCC1OC(n2ncc(=O)[nH]c2=O)C(OC(C)=O)C1OC(C)=O (stereo unspecified)	–	> 100 µM	–	> 100	–	> 100	–	> 100 µM	–	> 100 µM	–	> 100	–	> 100 µM	–	> 100 µM	–	> 100	–	> 100 µM
NC(=O)c1cc(Br)ccc1NC(=O)/C=C/c1ccccc1	0.757	> 100 µM	0.803	9.97	1.42 µM	> 100	1.24 µM	8.57 µM	1.33 µM	> 20.3 µM	0.914	> 100	3.72 µM	> 34.8 µM	3.29	> 100 µM	8.85	> 100	5.47 µM	> 23.7 µM
O=C1CC(CC(OCc2ccccc2)C(OCc2ccccc2)C(COCc2ccccc2)OCc2ccccc2)CC(=O)N1 (stereo unspecified)	–	> 100 µM and 31.4 µM	–	> 100	> 100 µM and 21.4 µM	> 100	> 100 µM and 16.8 µM	> 100 µM and 35.5 µM	> 100 µM and 11.2 µM	> 100 µM and 28.4 µM	–	18	> 100 µM and 11 µM	> 100 µM and 49.3 µM	–	> 100 µM and 32.8 µM	–	> 100	> 100 µM and 26.8 µM	> 100 µM and 73.1 µM
COc1cc(CCC(=O)NC[C@@H](O)c2ccccc2)ccc1O	> 100	> 100 µM	> 100	> 100	–	–	> 100 µM	> 100 µM	> 100 µM	> 100 µM	> 100	> 100	> 100 µM	> 100 µM	> 100	> 100 µM	> 100	> 100	> 100 µM	> 100 µM
CCOC(=O)c1cc(NS(=O)(=O)c2ccc(C)cc2)cc(C(=O)OCC)c1	28	> 100 µM	37.2	> 100	27 µM	93.5	49.4 µM	> 100 µM	44.9 µM	> 100 µM	82.7	> 100	53.7 µM	> 100 µM	27	> 100 µM	21.2	85.5	79.6 µM	> 100 µM
CC1(C)CCC(C)(C)c2cc(NC(=O)c3ccc(C(=O)O)cc3)ccc21	–	> 83.2 µM	–	> 31.6	–	> 82.2	–	> 51 µM	–	68.2 µM	–	> 95	–	> 85.4 µM	–	> 100 µM	–	> 100	–	> 57.6 µM
C=CC(=O)N1CC[C@H](n2nc(C#Cc3cc(OC)cc(OC)c3)c3c(N)ncnc32)C1	3.78	> 100 µM	4.57	> 100	21.9 µM	> 100	2.6 µM	65.9 µM	15.5 µM	> 100 µM	13.9	> 100	2.24 µM	> 100 µM	2.45	33.3 µM	3.47	> 100	5.43 µM	> 100 µM
Cc1cccc(Cl)c1NC(=O)c1cnc(Nc2cc(N3CCOCC3)cc(S(C)(=O)=O)c2)s1	> 8.99	> 10 µM	> 10	> 10	> 5.14 µM	> 10	0.306 µM	> 10 µM	> 4.23 µM	> 10 µM	0.203	0.663	0.171 µM	> 5.31 µM	> 10	> 10 µM	> 10	> 10	0.198 µM	> 10 µM
Oc1ccccc1/C=N\NC(=S)N/N=C/c1ccccc1O	2.38	40.3 µM	0.648	> 100	4.14 µM	> 100	3.26 µM	34.3 µM	0.249 µM	0.987 µM	6.63	48.8	3.49 µM	20 µM	2.77	34.2 µM	0.64	46.7	4.22 µM	> 100 µM
COc1ccc2c(c1)C(c1cc(OC)c3c(c1)OCO3)C1=C(COC1=O)N2 (stereo unspecified)	0.261	27.3 µM	0.382	> 100	0.36 µM	> 100	0.318 µM	–	0.0919 µM	> 34 µM	0.325	–	0.469 µM	> 36 µM	0.461	> 100 µM	1.28	> 100	0.397 µM	> 47.5 µM
